Experiments:
Type in all cases: functional, organism-based
Escherichia coli [1] = experiment: Pka1 value was evaluated in Escherichia coli MRE600 strain 70S ribosome (Observation 1)
Escherichia coli [2] = experiment: Pka2 value was evaluated in Escherichia coli MRE600 strain 70S ribosome (Observation 1)
Escherichia coli [3] = experiment: Pka2 value was evaluated in Escherichia coli MRE600 strain 70S ribosome (Observation 2)
Escherichia coli [4] = experiment: Pka1 value was evaluated in Escherichia coli MRE600 strain 70S ribosome (Observation 2)

## CC[C@H]1OC(=O)C(C)C(=O)[C@H](C)[C@@H](O[C@@H]2O[C@H](C)C[C@H](N(C)C)[C@H]2O)[C@@](C)(OC)C[C@@H](C)C(=O)[C@H](C)[C@H]2N(NCCCc3ccnc4ccccc34)C(=O)O[C@]12C (some centres undefined)
Escherichia coli [1]
  pKa1: 5
Escherichia coli [2]
  pKa2: 8
Escherichia coli [3]
  pKa2: 6
Escherichia coli [4]
  pKa1: 3

— ChEMBL document CHEMBL1131074, “Conformational analysis of ketolide, conformations of RU 004 in solution and bound to bacterial ribosomes” (J Med Chem, 1998)
